Reference: patent publication US7319152B2 (Wyeth, priority 2005, dated 2008)
pEC50, pIC50: −log10 of the molar value. Values joined by “and” are separate entries in the source; they are usually repeats but may differ in a detail not shown here. Equal entries are not always repeated.

Each compound was assayed against T1, PR (Homo sapiens, UniProt P06401) (assay: T47D cell alkaline phosphatase assay). Settings: T47D cells, agonist mode; read-out: Alk. Phos. EC50.
T1 construct: alkaline phosphatase activity in T47D cells; endogenous in cells; host or cells: T47D cells
T1 sequence (P06401 1-933): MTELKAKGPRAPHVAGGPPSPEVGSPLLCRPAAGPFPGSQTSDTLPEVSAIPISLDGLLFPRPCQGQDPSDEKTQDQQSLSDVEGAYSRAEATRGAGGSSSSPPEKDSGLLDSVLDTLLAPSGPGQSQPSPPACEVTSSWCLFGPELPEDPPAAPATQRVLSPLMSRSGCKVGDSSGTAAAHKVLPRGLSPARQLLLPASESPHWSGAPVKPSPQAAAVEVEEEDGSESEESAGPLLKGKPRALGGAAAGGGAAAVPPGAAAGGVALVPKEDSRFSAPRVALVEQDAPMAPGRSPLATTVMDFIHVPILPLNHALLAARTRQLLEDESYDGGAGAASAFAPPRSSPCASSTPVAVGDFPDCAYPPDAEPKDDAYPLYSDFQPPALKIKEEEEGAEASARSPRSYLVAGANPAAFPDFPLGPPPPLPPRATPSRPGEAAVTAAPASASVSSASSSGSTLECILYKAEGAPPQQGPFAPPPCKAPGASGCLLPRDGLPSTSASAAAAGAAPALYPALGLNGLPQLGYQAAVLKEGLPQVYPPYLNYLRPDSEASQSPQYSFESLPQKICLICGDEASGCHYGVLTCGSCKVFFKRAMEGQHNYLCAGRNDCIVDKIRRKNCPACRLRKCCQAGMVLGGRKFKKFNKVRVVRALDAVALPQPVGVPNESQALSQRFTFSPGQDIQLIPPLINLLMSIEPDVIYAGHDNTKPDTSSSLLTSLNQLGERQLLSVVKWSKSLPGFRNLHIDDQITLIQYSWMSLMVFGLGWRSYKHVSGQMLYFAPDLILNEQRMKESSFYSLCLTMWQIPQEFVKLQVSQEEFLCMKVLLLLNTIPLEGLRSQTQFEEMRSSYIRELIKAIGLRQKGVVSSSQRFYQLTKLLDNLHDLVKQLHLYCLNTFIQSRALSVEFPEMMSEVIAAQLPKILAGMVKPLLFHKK
Format: cell-based
Protocol: (a) Purpose: To identify progestins or antiprogestins by determining a compound's effect on alkaline phosphatase activity in T47D cells. […] Cell Culture and Treatment • Frozen T47D cells were thawed in a 37° C. water bath and diluted to 280,000 cells/ml in culture medium. To each well in a 96-well plate (Falcon, Becton Dickinson Labware), 180 ? L of diluted cell suspension was added. Twenty ? L of reference or test compounds diluted in the culture medium was then added to each well. […] The cells were incubated at 37° C. in a 5% CO2humidified atmosphere for 24 hours. • Note: For high throughput screening, one concentration of each compound was tested at 0.3 mg/ml. […] Alkaline Phosphatase Enzyme Assay • At the end of treatment, the medium was removed from the plate. Fifty ? L of assay buffer I was added to each well. The plates were shaken in a titer plate shaker for 15 minutes. Then 150 ? L of assay buffer II was added to each well. […] Square root-transformed data were used for analysis of variance and nonlinear dose response curve fitting for both agonist and antagonist modes. Huber weighting was used to downweight the effects of outliers. EC50 or IC50 values were calculated from the retransformed values. JMP software (SAS Institute, Inc.) was used for both one-way analysis of variance and non-linear dose response analyses in both single dose and dose response studies.
`Cn1c(C#N)ccc1-c1ccc2c(c1)C(C)(C)CC2=O` [Example 3, 5-(3,3-dimethyl-1-oxo-2,3-dihydro-1H-inden-5-yl)-1-methyl-1H-pyrrole-2-carbonitrile] gave a pEC50 of 8.00.

Same assay, conditions: read-out: Alk. Phos. IC50
`CCC(=O)c1ccc(-c2ccc(C#N)n2C)cc1` [Example 9, 1-methyl-5-(4-propionylphenyl)-1H-pyrrole-2-carbonitrile] showed a pIC50 of 6.94. In the case of `Cn1c(C#N)ccc1-c1ccc(C(=O)c2cccs2)cc1` [Example 10, 1-methyl-5-[4-(thien-2-ylcarbonyl)phenyl]-1H-pyrrole-2-carbonitrile], the pIC50 was 6.58. With `Cc1ccc(-c2ccc3c(c2)C(C)(C)CC3=O)cc1` [Example 26, 3,3-dimethyl-5-(4-methylphenyl)indan-1-one] the pIC50 was 6.06. In the case of `Cn1c(C#N)ccc1-c1ccc(C(=O)c2ccccc2)cc1` [Example 11, 5-(4-benzoylphenyl)-1-methyl-1H-pyrrole-2-carbonitrile], the pIC50 was 6.52. `CC1(C)CC(=O)c2ccc(-c3ccc(Cl)cc3)cc21` [Example 21, 5-(4-chlorophenyl)-3,3-dimethylindan-1-one] showed a pIC50 of 6.70. `CC1(C)CC(=O)c2ccc(-c3cc(Cl)ccc3Cl)cc21` [Example 35, 5-(2,5-dichlorophenyl)-3,3-dimethylindan-1-one] showed a pIC50 of 6.20. Compound `CC1(C)CC(=O)c2ccc(-c3ccc(Cl)cc3Cl)cc21` [Example 36, 5-(2,4-dichlorophenyl)-3,3-dimethylindan-1-one] has a pIC50 of 6.46. `Cc1cccc(-c2ccc3c(c2)C(C)(C)CC3=O)c1` [Example 29, 3,3-dimethyl-5-(3-methylphenyl)indan-1-one] gave a pIC50 of 6.65. In the case of `CC1(C)CC(=O)c2ccc(-c3ccccc3Cl)cc21` [Example 32, 5-(2-chlorophenyl)-3,3-dimethylindan-1-one], the pIC50 was 6.13. In the case of `Cn1c(C#N)ccc1-c1ccc2c(c1)CCCC2=O` [Example 13, 1-methyl-5-(5-oxo-5,6,7,8-tetrahydronaphthalen-2-yl)-1H-pyrrole-2-carbonitrile], the pIC50 was 7.56. For `CC1(C)CC(=O)c2ccc(-c3ccccc3)cc21` [Example 37, 3,3-dimethyl-5-phenylindan-1-one], the pIC50 was 6.52. `CC1(C)CC(=O)c2ccc(-c3cccc(Cl)c3)cc21` [Example 28, 5-(3-chlorophenyl)-3,3-dimethylindan-1-one] showed a pIC50 of 7.18. For `CC1(C)CC(=O)c2ccc(-c3ccc(F)c(Cl)c3)cc21` [Example 38, 5-(3-chloro-4-fluorophenyl)-3,3-dimethylindan-1-one], the pIC50 was 7.00.

These compounds were tested on rat uterine decidualization (assay: Rat decidualization assay). Settings: ovariectomized Sprague-Dawley rats, s.c., average of dose-response curves.
Format: in vivo
Protocol: The animals were treated once daily for seven days. […] In all studies, a control group receiving vehicle was included. […] The contralateral horn was not scratched and served as an unstimulated control. Approximately 24 hoursfollowing the final treatment, rats were sacrificed by CO2 asphyxiation and body weight measured. Uteri were removed and trimmed of fat. Decidualized (D-horn) and control (C-horn) uterine horns were weighed separately.
Body weight: Mean total animal body weight (default-kg)
D-horn: Wet weight of decidualized uterine horn (default-kg)
C-horn: Wet weight of control uterine horn (default-kg)
Decidual response: [(D−C)/C]×100%
With `C#C[C@]1(O)CC[C@H]2[C@@H]3CCC4=CC(=O)CC[C@@H]4[C@H]3C(=C)C[C@@]21CC` [3-Ketodesogestrel] the “Estimated average EC50 for uterine wet weight” value was 0.10 mg/kg, s.c. For `C#C[C@]1(O)CC[C@H]2[C@@H]3CCC4=CC(=O)CC[C@@H]4[C@H]3CC[C@@]21CC` [Levonorgestrel], the “Estimated average EC50 for uterine wet weight” value was 0.10 mg/kg, s.c.

Same assay, conditions: ovariectomized rats, p.o., with EC50 dose of progesterone (5.6 mg/kg), individual studies
In the case of `CC#C[C@]1(O)CC[C@H]2[C@@H]3CCC4=CC(=O)CCC4=C3[C@@H](c3ccc(N(C)C)cc3)C[C@@]21C` [RU486], the “Estimated IC50 for uterine weight” value was 0.21 mg/kg, p.o. and 0.14 mg/kg, p.o.
